Experimental data reported in ChEMBL document CHEMBL1129120, “Anti-human immunodeficiency and anti-hepatitis B virus activities of -l-2,3-dideoxy purine nucleosides” (Bioorg Med Chem Lett, 1996).
Each block holds one compound with its values, some of them ahead of it.

What was measured:
HepG2 [1] = test: Antiviral activity against Hepatitis B virus in 2.2.15 cell line; assay type: functional, cell-based; conditions: Homo sapiens
HepG2 [2] = test: Concentration required to inhibit 50% of 2.2.15 cell line; assay type: functional, cell-based; conditions: Homo sapiens
CCRF-CEM [3] = test: Antiviral activity against HIV in CEM cell line; assay type: functional, cell-based; conditions: Homo sapiens
CCRF-CEM [4] = test: Concentration required to inhibit 50% of CEM cell lines; assay type: functional, cell-based; conditions: Homo sapiens
[5] = Concentration required to inhibit 50% of human peripheral blood mononuclear cells; assay type: functional
[6] = Antiviral activity against HIV in human peripheral blood mononuclear cells (PBMC); assay type: functional

Compound: Nc1ncnc2c1ncn2[C@H]1C=C[C@@H](CO)O1 (single isomer, unassigned)
- EC50 (HepG2 [1]): 1.2 µM
- IC50 (HepG2 [2]): 70 µM
- EC50 (CCRF-CEM [3]): 0.54 µM
- IC50 (CCRF-CEM [4]): 37 µM
- IC50 [5]: 59 µM
- EC50 [6]: 0.38 µM

Compound: Nc1nc(O)c2ncn([C@H]3CC[C@@H](CO)O3)c2n1 (single isomer, unassigned)
- EC50 (HepG2 [1]): > 10 µM
- IC50 (HepG2 [2]): 200 µM
- EC50 (CCRF-CEM [3]): > 100 µM
- IC50 (CCRF-CEM [4]): > 100 µM
- IC50 [5]: > 100 µM
- EC50 [6]: > 100 µM

Compound: O=c1[nH]cnc2c1ncn2[C@H]1CC[C@@H](CO)O1 (single isomer, unassigned) [DIDANOSINE]
- EC50 (HepG2 [1]): > 10 µM
- IC50 (HepG2 [2]): > 200 µM
- IC50 [5]: > 100 µM
- EC50 [6]: > 100 µM

The next lines start with the values.

- EC50 (HepG2 [1]): > 10 µM
- IC50 (HepG2 [2]): 50 µM
- EC50 (CCRF-CEM [3]): 18.1 µM
- IC50 (CCRF-CEM [4]): > 10 µM
- IC50 [5]: > 100 µM
- EC50 [6]: 14.1 µM
Compound: Nc1nc(O)c2ncn([C@@H]3C=C[C@H](CO)O3)c2n1

- EC50 (HepG2 [1]): > 10 µM
- IC50 (HepG2 [2]): 50 µM
- IC50 [5]: 60 µM
- EC50 [6]: 5.5 µM
Compound: OC[C@H]1C=C[C@@H](n2cnc3c(O)ncnc32)O1

- EC50 (HepG2 [1]): 6 µM
- IC50 (HepG2 [2]): > 200 µM
- IC50 [5]: > 100 µM
- EC50 [6]: 8.2 µM
Compound: Nc1ncnc2c1ncn2[C@H]1CC[C@@H](CO)O1 (single isomer, unassigned)
